Experimental data: patent publication US11980616B2, “Treating liver disease by selectively eliminating senescent cells” (Buck Institute for Research on Aging, priority 2014, dated 2024)

Columns and labels:
[1] = tested on: senescent mouse embryonic fibroblasts (MEF); assay: Cell count survival assay, irradiation-induced senescent MEF; format: cell-based; conditions: irradiated MEF; 0, 2.5, 10 μM for 9 days
Description: (§1) Foreskin fibroblast cell lines HCA2 and BJ, lung fibroblast cell line IMR90, and mouse embryonic fibroblasts were seeded in six-well plates and induced to senesce with 10 Gy of ionizing radiation (IR) or a 24 hr treatment with doxorubicin (Doxo). Senescent phenotype was allowed to develop for at least 7 days, at which point a cell count was made to determine the baseline number of cells. Nutlin-3a treatment was then initiated for a period of at least 9 days. Media alone or media with drug as appropriate was refreshed at least every three days. At the end of the assay time period, cells are counted. Each condition was seeded in three plate wells and counted independently. Initial cell count serves as a control to determine the induction of senescence, as compared to the last day count without nutlin treatment. Initial non-senescent cell count serves as a proxy to determine Nutlin-3a toxicity.
(§2) Foreskin fibroblast cell lines HCA2 and BJ, lung fibroblast cell line IMR90, and mouse embryonic fibroblasts were exposed to 10 Gy of ionizing radiation (IR) to induce senescence. […] Percent survival was calculated as [cell count on day 9 of Nutlin-3a treatment/initial cell count on first day of Nutlin-3a treatment].

[2] = tested on: doxorubicin-treated (Doxo) senescent aortic endothelial cells (Endo Aort); assay: Cell count survival assay, doxorubicin-induced senescent aortic endothelial cells; format: cell-based; conditions: Sen(Doxo) aortic endothelial cells; 11 days
Description: as §1
Foreskin fibroblasts (HCA2) and aortic endothelial cells (Endo Aort) were treated with doxorubicin (250 nM) for one day (24 hours) to induce senescence (see FIG. 1). Eight days following doxorubicin treatment, Nutlin-3a treatment was initiated. HCA2 cells were exposed to Nutlin-3a for 9 days, and aortic endothelial cells were exposed to Nutlin-3a for 11 days. […] Percent survival was calculated as [cell count on the last day of Nutlin-3a treatment/initial cell count on first day of Nutlin-3a treatment].

[3] = tested on: senescent foreskin fibroblasts (Sen(IR)HCA2); assay: Cell count survival assay, irradiation-induced senescent HCA2; format: cell-based; conditions: 0, 2.5, 10 μM for 9 days
Description: as §1, §2

[4] = tested on: p16-3MR mice fed a high fat diet; assay: High fat feeding-induced senescence in p16-3MR mice, SA-β-Gal staining of adipose tissue; format: in vivo, mouse; conditions: 25 mg/kg daily for five days; p=<0.004
Description: Groups of p16-3MR mice (n=6) were fed a high fat diet (60% fat) for four months mice or a regular chow diet. The presence of senescence cells was determined by measuring luminescence p16 positive cells). […] Animals were then treated with ganciclovir or vehicle to determine if removal of senescent cells reduced the presence of senescent cells in adipose tissue. Groups of animals were treated with ganciclovir or vehicle. Ganciclovir (25 mg/kg) was administered daily for five consecutive days. The presence of senescent cells in perirenal, epididymal, or subcutaneous inguinal adipose tissue was detected by SA-β-Gal staining. Data were analyzed by ANOVA.

Row | SMILES | Percent survival [1] | Percent survival [2] | Percent survival [3] | Presence of senescent cells in epididymal fat (SA-β-Gal staining) [4]
1 | COc1ccc(C2=N[C@@H](c3ccc(Cl)cc3)[C@@H](c3ccc(Cl)cc3)N2C(=O)N2CCNC(=O)C2)c(OC(C)C)c1 [Nutlin-3a] | reduced cell survival | sensitive | reduced cell survival | 
2 | Nc1nc(O)c2ncn(COC(CO)CO)c2n1 [ganciclovir] |  |  |  | significant reduction
